Patent publication US20260001879A1, “COMPOUNDS AS MYT1 INHIBITORS” (WIGEN BIOMMEDICINE TECHNOLOGY (SHANGHAI) CO., LTD., priority 2022, published 2026)

What was measured:
[1] = target: recombinant protein MYT1 (Homo sapiens (Human), UniProt Q99640); assay: In vitro assay for inhibiting MYT1 kinase activity (ADP-GLO); format: biochemical; conditions: 10 μM ATP, read-out: Inhibitory activity against recombinant protein MYT1 IC50
Procedure: Recombinant MYT1 protein and the compounds were pre-incubated at room temperature for 15 min, and 10 μM ATP was then added to start the reaction. The mixture was incubated at room temperature for another 60 min, and the ADP-GLO reagent from Promega was then added. The resulting mixture was incubated in the dark for 40 min, a detection solution was then added, and the mixture was incubated for another 45-60 min. The chemiluminescence was determined using ENVISION. The inhibition rate and IC50 were calculated compared to the DMSO group.

[2] = tested on: MIA PaCa-2 cells; assay: In vitro anti-proliferative activity against MIA PaCa-2 cells (compound alone); format: cell-based; conditions: intracellular ATP content
Procedure: (§1) MIA PaCa-2 cells were seeded on a 384-well plate at 3000 cells/well. After overnight adherence culture, DMSO or the compounds serially diluted 1:5 from 10 μM were added. The viability was assessed 72 h after dosing by measuring the intracellular ATP content. The inhibition percentage of viable cells by the compounds was calculated by comparing with the DMSO group, and the IC50 value was calculated.

[3] = tested on: MIA PaCa-2 cells; assay: In vitro anti-proliferative activity in combination with gemcitabine against MIA PaCa-2 cells; format: cell-based
Procedure: as §1, with “cells/well, and 20 nM gemcitabine was added.” for “cells/well.”, “1000 nM” for “10 μM”

[4] = tested on: P-glycoprotein (P-gp, MDR1); assay: in vitro; conditions: dog; for Papp A→B / Papp B→A: 5 μM
Procedure: (§2) In vitro passive permeability or the ability to serve as a P-glycoprotein (P-gp) transport substrate was tested using MDCK cells (MDCK wild type) or MDCK cells stably transduced with MDRI (MDCK-MDRI), respectively. The permeability experiment was performed in duplicate in a transwell system at a single concentration (5 μM). The cells were incubated for […] Apical-to-basolateral (A to B, A-B) transport and basolateral-to-apical (B to A, B-A) transport of the corresponding compound were determined, and the permeation rate (apparent permeability) (Papp×10^−6 cm/sec) and efflux ratio (Papp (B−A)/Papp (A−B)) of the test compound were calculated.

[5] = in vitro; conditions: dog
Procedure: as §2

[6] = read-out: Anti-proliferative activity against MIA PaCa-2 cells (20 nM gemcitabine) IC50, with 20 nM gemcitabine, 72 h, intracellular ATP content
[7] = Homo sapiens, MIA PaCa-2, 72 h, read-out: Anti-proliferative activity against MIA PaCa-2 cells (20 nM gemcitabine) IC50, with 20 nM gemcitabine, 72 h, intracellular ATP content

Chain of recombinant protein MYT1 (Q99640 whole entry): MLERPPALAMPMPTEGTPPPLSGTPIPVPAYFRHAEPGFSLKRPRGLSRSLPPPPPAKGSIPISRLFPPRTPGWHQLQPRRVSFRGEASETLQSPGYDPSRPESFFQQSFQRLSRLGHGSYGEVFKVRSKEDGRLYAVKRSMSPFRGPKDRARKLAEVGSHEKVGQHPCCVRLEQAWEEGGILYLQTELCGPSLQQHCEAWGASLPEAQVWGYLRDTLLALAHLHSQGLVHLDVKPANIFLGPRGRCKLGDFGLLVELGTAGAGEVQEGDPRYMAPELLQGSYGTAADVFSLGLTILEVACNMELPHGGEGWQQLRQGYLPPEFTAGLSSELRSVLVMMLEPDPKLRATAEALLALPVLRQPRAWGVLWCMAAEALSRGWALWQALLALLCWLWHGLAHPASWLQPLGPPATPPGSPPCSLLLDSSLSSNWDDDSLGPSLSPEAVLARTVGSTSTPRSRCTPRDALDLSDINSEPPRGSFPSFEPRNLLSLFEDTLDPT

## Cc1ccc(O)c(C)c1-n1c(N)c(C(N)=O)c2cc3c(nc21)CCN(C)C3 (atropisomer, axis not shown) [Compound 98]
[1]
  IC50: ≤ 0.2 µM
[2]; 72 h
  IC50: > 10 µM
[3]; [6]
  IC50: > 1 µM

## Cc1cc2c(C(N)=O)c(N)n(-c3c(C)c(O)cc4c3CCC4)c2nc1C (atropisomer, axis not shown) [Compound 117]
[3]; [6]
  IC50: > 1 µM

## Cc1cc2c(C(N)=O)c(N)n(-c3c(C)c(O)cc(F)c3C)c2nc1C (single isomer, unassigned) [Compound 3]
[1]
  IC50: ≤ 0.2 µM
[2]; 72 h
  IC50: > 10 µM
[3]; [6]
  IC50: 1.23 µM

## Cc1cc2c(C(N)=O)c(N)n(-c3c(C)cc(F)c(O)c3C)c2nc1C (single isomer, unassigned) [Compound 6]
[1]
  IC50: ≤ 0.2 µM
[2]; Homo sapiens, MIA PaCa-2, 72 h
  IC50: > 10 µM
[3]; [6]
  IC50: 0.165 µM

## Cc1cc2c(C(N)=O)c(N)n(-c3c(C)cc(F)c(O)c3C)c2nc1C (single isomer, unassigned) [Compound 7]
[1]
  IC50: ≤ 0.2 µM
[2]; 72 h
  IC50: > 10 µM
[3]; [6]
  IC50: > 1 µM

## Cc1ccc(O)c(C)c1-n1c(N)c(C(N)=O)c2cc(C#N)c(C)nc21 [Compound 10]
[1]
  IC50: ≤ 0.2 µM
[2]; 72 h
  IC50: 4.24 µM
[3]; [6]
  IC50: 0.045 µM

## Cc1ccc(O)c(C)c1-n1c(N)c(C(N)=O)c2cc(C#N)c(C)nc21 [Compound 11]
[1]
  IC50: ≤ 0.2 µM
[2]; 72 h
  IC50: > 10 µM
[3]; [6]
  IC50: > 1 µM

## Cc1cc2c(C(N)=O)c(N)n(-c3c(C)ccc(O)c3C)c2nc1C#N [Compound 12]
[1]
  IC50: ≤ 0.2 µM
[3]; [7]
  IC50: 0.228 µM

## Cc1ccc(O)c(C)c1-n1c(N)c(C(N)=O)c2cc3c(nc21)COC3 [Compound 16]
[1]
  IC50: ≤ 0.2 µM
[2]; Homo sapiens, MIA PaCa-2, 72 h
  IC50: > 10 µM
[3]; [6]
  IC50: 0.101 µM

## Cc1ccc(O)c(C)c1-n1c(N)c(C(N)=O)c2cc3c(nc21)COC3 [Compound 17]
[1]
  IC50: ≤ 0.2 µM
[2]; 72 h
  IC50: > 10 µM
[3]; [6]
  IC50: > 1 µM

## Cc1ccc(O)c(C)c1-n1c(N)c(C(N)=O)c2cc3c(nc21)CCN(C)C3 [Compound 97]
[1]
  IC50: ≤ 0.2 µM
[2]; Homo sapiens, MIA PaCa-2, 72 h
  IC50: > 10 µM
[3]; [6]
  IC50: 0.101 µM

## Cc1cc2c(C(N)=O)c(N)n(-c3c(C)c(O)cc4c3CCC4)c2nc1C [Compound 116]
[3]; [7]
  IC50: > 1 µM

## Cc1cc2c(C(N)=O)c(N)n(-c3c(C)cc4c(c3C)NCC4)c2nc1C [Compound 150]
[3]; [7]
  IC50: > 1 µM

## Cc1cc2c(C(N)=O)c(N)n(-c3c(C)cc4c(c3C)NCC4)c2nc1C [Compound 151]
[3]; [6]
  IC50: > 1 µM

## Cc1cc2c(C(N)=O)c(N)n(-c3c(C)cc4cc[nH]c4c3C)c2nc1C [Compound 153]
[1]
  IC50: ≤ 0.2 µM
[3]; [7]
  IC50: > 1 µM

## Cc1nc2c(cc1C#N)c(C(N)=O)c(N)n2-c1c(C(F)(F)F)ccc(O)c1C [Compound 184]
[1]
  IC50: ≤ 0.2 µM

## Cc1cc2c(C(N)=O)c(N)n(-c3c(C(F)(F)F)ccc(O)c3C)c2nc1C#N [Compound 186]
[1]
  IC50: ≤ 0.2 µM

## Cc1cc2c(C(N)=O)c(N)n(-c3c(C)ccc(O)c3C(F)(F)F)c2nc1C#N [Compound 187]
[1]
  IC50: ≤ 0.2 µM

## Cc1cc2c(C(N)=O)c(N)n(-c3c(C)c(O)cc(Cl)c3C)c2nc1C [Compound 193]
[1]
  IC50: ≤ 0.2 µM

## Cc1cc2c(C(N)=O)c(N)n(-c3c(C)c(O)cc(Br)c3C)c2nc1C [Compound 196]
[1]
  IC50: ≤ 0.2 µM

## Cc1c(O)cc(F)c(C)c1-n1c(N)c(C(N)=O)c2cc3c(nc21)CCC3 [Compound 199]
[1]
  IC50: ≤ 0.2 µM

## Cc1c(O)cc(F)c(C)c1-n1c(N)c(C(N)=O)c2cc3c(nc21)CCCC3 [Compound 202]
[1]
  IC50: ≤ 0.2 µM

## Cc1cc2c(C(N)=O)c(N)n(-c3c(C)c(C)cc(O)c3C)c2nc1C [Compound 205]
[1]
  IC50: ≤ 0.2 µM

## Cc1cc2c(C(N)=O)c(N)n(-c3c(C)c(O)cc(C(F)(F)F)c3C)c2nc1C [Compound 208]
[1]
  IC50: ≤ 0.2 µM

## Cc1c(O)cc(F)c(C)c1-n1c(N)c(C(N)=O)c2cc3c(nc21)CC=C3 [Compound 211]
[1]
  IC50: ≤ 0.2 µM

## Cc1c(O)cc(F)c(C)c1-n1c(N)c(C(N)=O)c2cc3c(nc21)C=CC3 [Compound 214]
[1]
  IC50: ≤ 0.2 µM

## Cc1cc2c(C(N)=O)c(N)n(-c3c(C)c(O)cc(I)c3C)c2nc1C [Compound 217]
[1]
  IC50: ≤ 0.2 µM

## Cc1cc2c(C(N)=O)c(N)n(-c3c(C)c(O)cc(C#N)c3C)c2nc1C [Compound 220]
[1]
  IC50: ≤ 0.2 µM

## COc1cc(O)c(C)c(-n2c(N)c(C(N)=O)c3cc(C)c(C)nc32)c1C [Compound 223]
[1]
  IC50: ≤ 0.2 µM

## C[C@H]1O[C@@H](O[C@H]2[C@@H](O)C[C@H](O[C@H]3[C@@H](O)C[C@H](O[C@H]4CC[C@@]5(C)[C@H](CC[C@@H]6[C@@H]5C[C@@H](O)[C@]5(C)[C@@H](C7=CC(=O)OC7)CC[C@]65O)C4)O[C@@H]3C)O[C@@H]2C)C[C@H](O)[C@@H]1O [Digoxin]
[4]; MDCK-MDR1
  efflux ratio at 90 min, 5 μM: 21.4
[4]; MDCK-MDR1, Papp A-B Mean
  Papp A→B at 90 min, 5 µM: 0.96 ×10⁻⁶ cm/s
[4]; MDCK-MDR1, Papp A-B Sample - 01
  Papp A→B at 90 min, 5 µM: 0.96 ×10⁻⁶ cm/s
[4]; MDCK-MDR1, Papp A-B Sample - 02
  Papp A→B at 90 min, 5 µM: 0.96 ×10⁻⁶ cm/s
[4]; MDCK-MDR1, Papp B-A Mean
  Papp B→A at 90 min, 5 µM: 20.6 ×10⁻⁶ cm/s
[4]; MDCK-MDR1, Papp B-A Sample - 01
  Papp B→A at 90 min, 5 µM: 17.7 ×10⁻⁶ cm/s
[4]; MDCK-MDR1, Papp B-A Sample - 02
  Papp B→A at 90 min, 5 µM: 23.5 ×10⁻⁶ cm/s
[5]; MDCK
  efflux ratio at 90 min, 5 μM: 2.69
[5]; MDCK, Papp A-B Mean
  Papp A→B at 90 min, 5 µM: 1.79 ×10⁻⁶ cm/s
[5]; MDCK, Papp A-B Sample - 01
  Papp A→B at 90 min, 5 µM: 1.9 ×10⁻⁶ cm/s
[5]; MDCK, Papp A-B Sample - 02
  Papp A→B at 90 min, 5 µM: 1.68 ×10⁻⁶ cm/s
[5]; MDCK, Papp B-A Mean
  Papp B→A at 90 min, 5 µM: 4.8 ×10⁻⁶ cm/s
[5]; MDCK, Papp B-A Sample - 01
  Papp B→A at 90 min, 5 µM: 4.64 ×10⁻⁶ cm/s
[5]; MDCK, Papp B-A Sample - 02
  Papp B→A at 90 min, 5 µM: 4.96 ×10⁻⁶ cm/s

## COCCc1ccc(OCC(O)CNC(C)C)cc1 (stereo not drawn) [Metoprolol, metoprolol]
[4]; MDCK-MDR1, Papp A-B Mean, MDCK-MDR1, A-B, mean
  Papp A→B: 37 ×10⁻⁶ cm/s
[4]; MDCK-MDR1, Papp A-B Sample - 01, MDCK-MDR1, A-B, replicate 01
  Papp A→B: 37.6 ×10⁻⁶ cm/s
[4]; MDCK-MDR1, Papp A-B Sample - 02, MDCK-MDR1, A-B, replicate 02
  Papp A→B: 36.3 ×10⁻⁶ cm/s
[4]; MDCK-MDR1, Papp B-A Mean, MDCK-MDR1, B-A, mean
  Papp B→A: 20.1 ×10⁻⁶ cm/s
[4]; MDCK-MDR1, Papp B-A Sample - 01, MDCK-MDR1, B-A, replicate 01
  Papp B→A: 20.1 ×10⁻⁶ cm/s
[4]; MDCK-MDR1, Papp B-A Sample - 02, MDCK-MDR1, B-A, replicate 02
  Papp B→A: 20.2 ×10⁻⁶ cm/s
[5]; Papp A-B Mean, MDCK-Wild type, A-B, 5 μM, mean
  Papp A→B at 90 min, 5 µM: 24.3 ×10⁻⁶ cm/s
[5]; Papp A-B Sample - 01, MDCK-Wild type, A-B, 5 μM, replicate 01
  Papp A→B at 90 min, 5 µM: 26.5 ×10⁻⁶ cm/s
[5]; Papp A-B Sample - 02, MDCK-Wild type, A-B, 5 μM, replicate 02
  Papp A→B at 90 min, 5 µM: 22.2 ×10⁻⁶ cm/s
[5]; Papp B-A Mean, MDCK-Wild type, B-A, 5 μM, mean
  Papp B→A at 90 min, 5 µM: 21.3 ×10⁻⁶ cm/s
[5]; Papp B-A Sample - 01, MDCK-Wild type, B-A, 5 μM, replicate 01
  Papp B→A at 90 min, 5 µM: 18.6 ×10⁻⁶ cm/s
[5]; Papp B-A Sample - 02, MDCK-Wild type, B-A, 5 μM, replicate 02
  Papp B→A at 90 min, 5 µM: 24 ×10⁻⁶ cm/s
